Experiment [1] deals with Rattus norvegicus. The experiment is described as follows: Percent Inhibition of AII vasopressor response in SHR at 1 mg/kg oral dose in hypertensive rats after 5 h. In kind it is functional.
Experiment [2] addresses T1, Angiotensin II receptor (Rattus norvegicus, UniProt P29089+P25095+P35351).
T1 sequence (P29089 whole entry): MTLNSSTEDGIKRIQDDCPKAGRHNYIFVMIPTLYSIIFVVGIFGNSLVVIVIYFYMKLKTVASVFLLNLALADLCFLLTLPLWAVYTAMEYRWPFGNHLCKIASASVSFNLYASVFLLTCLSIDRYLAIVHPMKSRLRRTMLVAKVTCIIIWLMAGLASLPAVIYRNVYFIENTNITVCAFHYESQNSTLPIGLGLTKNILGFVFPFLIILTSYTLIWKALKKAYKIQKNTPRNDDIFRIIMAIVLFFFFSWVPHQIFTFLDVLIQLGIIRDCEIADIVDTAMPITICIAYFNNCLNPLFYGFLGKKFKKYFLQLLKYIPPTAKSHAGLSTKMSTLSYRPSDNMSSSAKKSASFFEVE
T1 sequence (P25095 whole entry): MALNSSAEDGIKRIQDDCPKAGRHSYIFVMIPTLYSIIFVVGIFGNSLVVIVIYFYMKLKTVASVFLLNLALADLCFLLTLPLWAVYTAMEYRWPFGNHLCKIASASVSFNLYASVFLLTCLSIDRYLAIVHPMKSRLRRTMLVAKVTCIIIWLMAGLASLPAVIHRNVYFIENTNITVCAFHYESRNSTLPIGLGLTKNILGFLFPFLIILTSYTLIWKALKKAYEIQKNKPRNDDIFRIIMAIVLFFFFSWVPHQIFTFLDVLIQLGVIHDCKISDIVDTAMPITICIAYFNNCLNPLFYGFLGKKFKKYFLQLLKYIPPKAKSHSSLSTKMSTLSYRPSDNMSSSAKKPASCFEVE
T1 sequence (P35351 whole entry): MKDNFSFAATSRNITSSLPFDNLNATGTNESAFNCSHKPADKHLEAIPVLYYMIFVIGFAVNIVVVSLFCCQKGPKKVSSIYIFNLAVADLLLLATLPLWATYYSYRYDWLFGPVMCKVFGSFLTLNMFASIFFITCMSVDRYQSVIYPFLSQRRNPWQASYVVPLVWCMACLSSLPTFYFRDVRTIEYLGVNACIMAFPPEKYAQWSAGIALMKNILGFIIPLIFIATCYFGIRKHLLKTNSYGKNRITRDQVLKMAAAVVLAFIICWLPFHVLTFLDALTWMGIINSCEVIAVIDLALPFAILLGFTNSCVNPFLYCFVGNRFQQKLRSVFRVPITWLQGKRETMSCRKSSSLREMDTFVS
Nature of the experiment: Binding affinity expressed as inhibitory concentration against angiotensin II receptor of rat adrenal cortex. In kind it is tissue-based.

Experiment [3] has as its target T2, Type-1 angiotensin II receptor (Bos taurus, UniProt P25104).
T2 sequence (P25104 whole entry): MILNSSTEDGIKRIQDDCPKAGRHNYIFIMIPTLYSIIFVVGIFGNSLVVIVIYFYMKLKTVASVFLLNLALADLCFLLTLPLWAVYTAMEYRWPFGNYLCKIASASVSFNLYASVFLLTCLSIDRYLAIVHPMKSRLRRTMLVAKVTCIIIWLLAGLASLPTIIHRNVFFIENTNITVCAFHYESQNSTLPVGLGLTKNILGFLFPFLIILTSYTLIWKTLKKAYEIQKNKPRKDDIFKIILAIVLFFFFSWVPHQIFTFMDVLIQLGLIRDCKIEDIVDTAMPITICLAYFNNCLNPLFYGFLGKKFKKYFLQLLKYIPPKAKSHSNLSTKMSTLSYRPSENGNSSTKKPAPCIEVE
The experiment is described as follows: Binding affinity expressed as inhibitory concentration towards bovine adrenal cortex angiotensin II receptor was measured. In kind it is tissue-based.

Experiment [4] concerns Rattus norvegicus. The experiment is described as follows: Change in mean arterial blood pressure in conscious renin dependent […] rats 1 mg/kg of oral dose after 5 hr. In kind it is functional.
Experiment [5] concerns the target T2, Type-1 angiotensin II receptor. Nature of the experiment: Compound was tested for in vitro for AII receptor antagonistic activity in bovine adrenal cortex. The format is functional, tissue-based.
Experiment [6] has as its target T1, Angiotensin II receptor. Nature of the experiment: Binding affinity expressed as inhibitory concentration against angiotensin II of rat adrenal cortex. The format is tissue-based.
In experiment [7] the test system is Rattus norvegicus. Nature of the experiment: Decrease in mean arterial blood pressure in aorta coated rats 3 mg/kg of oral dose after 4 hr. In kind it is functional.
The subject of experiment [8] is Rattus norvegicus. Nature of the experiment: Tested for […] in the […] rat at 3 mg/kg of oral dose; […]. In kind it is functional, organism-based. Also noted: dose 3 mg/kg.

A word on the inhibition in vivo: it is the drop in the measured response relative to a control, in per cent. The term IC50 denotes the concentration that gives 50% inhibition. A higher IC50 goes with weaker potency.

SMILES strings stand for the structures.

Take `CCCCc1nc2ccc([C@@]3(C)C[C@@H]4CCCN4O3)cc2c(=O)n1Cc1ccc(-c2ccccc2-c2nnn[n-]2)cc1.[Na+]`: the inhibition in vivo at 1 mg/kg in the experiment with Rattus norvegicus [1] is -10%. In addition, the values for the IC50 (on Angiotensin II receptor [2]; in experiment [3]) were 26 nM and 77 nM, respectively. Moreover, in the experiment with Rattus norvegicus [4], the “Change in BP” value was -3 mmHg.
For `CCCCc1nc2ccc(C(C)(O)C[C@H]3CCCN3)cc2c(=O)n1Cc1ccc(-c2ccccc2-c2nnn[nH]2)cc1` (stereo not given in full), half-maximal inhibition in experiment [5] (IC50) was put at 3.5 nM.
As for `CCCCc1nc2ccc([C@]3(C)C[C@H]4CCCN4O3)cc2c(=O)n1Cc1ccc(-c2ccccc2-c2nn[n-]n2)cc1.[Na+]` (stereo in doubt; 1a), the IC50 came out at 26 nM in experiment [3] and 17 nM at Angiotensin II receptor [6]. For the same compound, the “Change in BP” value in the experiment with Rattus norvegicus [4] (1 mg/kg) is given as 0 mmHg.
As for `CCCCc1nc2ccc([C@]3(C)C[C@H]4CCCN4O3)cc2c(=O)n1Cc1ccc(-c2ccccc2-c2nn[n-]n2)cc1.[Na+]` (stereo in doubt; 14), the inhibition in vivo at 1 mg/kg in the experiment on Rattus norvegicus [1] stood at 40%. For the same compound, the IC50 turned out to be 17 nM at Angiotensin II receptor [2] and 38 nM in experiment [3]. For the same compound, the “Change in BP” value in the experiment on Rattus norvegicus [4] (1 mg/kg) is -4 mmHg.
The compound `CCc1nc2c(C)cc(C)nc2n1Cc1ccc(-c2ccccc2-c2nnn[nH]2)cc1` [L-158809] returned a half-inhibitory concentration (IC50) in experiment [5] of 27 nM.
Take `CCCCc1nc2ccc(C(C)(O)C[C@H]3CCCN3)cc2c(=O)n1Cc1ccc(-c2ccccc2-c2nn[nH]n2)cc1` (stereo not given in full): the “Change in BP” value with Rattus norvegicus [7] amounted to 32 mmHg. For the same compound, the Activity result with Rattus norvegicus [8] was “Weak activity”.

(Values after ChEMBL document CHEMBL1127933, “Synthesis and biological evaluation of the potent isoxazolidinyl angiotensin II receptor antagonist CL332,877 and its enantiomers” (Bioorg Med Chem Lett, 1994).)
